Data on one molecule can be found in patent US11360104B2, “Microbial-based biosensors” (TRUSTEES OF BOSTON UNIVERSITY, priority 2017, dated 2022).

Assay [1] has as its target PinR (Nocardioides simplex (Pimelobacter simplex), UniProt A0A0A1DUF2). In words: Cross-reactivity assay of steroids using sensor 3. The format is biochemical. The protocol:
The cross-reactivity of progesterone regarding the different steroids was calculated with the following equation:
Description for a typical experiment, using a molar ratio of QD/TF/DNA=1/4/18.
50 uL of the sensor (QD/TF/DNA) was then splitted in 3×9 centrifuge tubes to which 10 uL of progesterone at the desired concentration is added. […] A 384 well plate was filled with 60 uL of each solution. The fluorescence intensity was monitored on a spectrofluorimeter from 535 nm to 800 nm exciting at 400 nm, equipped with a 450 nm long-pass filter in emission.

Assay [2] deals with steroid responsive genome island (SRGI). In words: Whole transcriptome RNA-Seq of steroid treated P. simplex. The format is cell-based, Pimelobacter simplex. The following applies: P. simplex exposed to steroid vs solvent control, Log2 fold change. The text has this:
(§1) In order to identify steroid binding Transcription Factors, a whole transcriptome RNA sequencing (RNA-Seq) screen was developed (FIG. 7). The growth of Pimelobacter simplex bacteria was profiled with respect to the starting inoculation density, solvent toxicity, and the addition of steroids (FIG. 16). […] P. simplex bacteria were screened against the steroid solvents ethanol (EtOH) and dimethyl sulfoxide (DMSO). […] Steroid growth curves were similarly performed using a starting OD of 0.005 and constant solvent dosing with titrations of steroids. […] P. simplex bacteria were grown in the presence of 700 μM testosterone, 21.88 μM progesterone, 87.50 μM estrone, 21.88 μM 17β-estradiol, 21.88 μM hydrocortisone, or 175.00 μM aldosterone concentrations were selected for comparison.
(§2) Using accession gene tags, genes were annotated for steroid relevant enzymes or transcription factors. […] Allosteric TF binding sequences are often palindromes and typically located near the start of its gene location in an intergenic space. With such a design, the allosteric TF can regulate itself or the open reading frame (ORF) near it in response to its effector molecule. […] Once identified, the TFs were cloned and recombinantly expressed for thorough characterization.
(§3) Cells were grown in 6 mL volumes of media at the OD, solvent, and steroid concentrations found from the growth curves in 14 mL polypropylene round-bottom tubes (Corning #352059) in technical duplicate. The same controls as in the steroid exposure growth curve were used for setting up RNA extraction samples. The cells were incubated at their corresponding temperature with continuous orbital shaking at 150 rpm until the end of lag-phase, mid-log phase, or stationary phase from the start of inoculation. Afterward, samples were removed and a 1:1 ratio of RNAprotect Bacteria Reagent (Qiagen #76506) was added followed by spinning down at 4° C. for 10 minutes at 4000 g. Supernatant was removed and the pellet re-suspended in 300 μL of RNAprotect and transferred into 2.0 mL Safe-Lock Tubes (Eppendorf #3101). The samples were then spun down once again at 4° C. for 10 minutes at 10000 g. Once the supernatant has been removed the samples were placed on ice and ready for RNA extraction. RNA extraction was done by Qiacube (Qiagen #9001292) set to the RNeasy Protect Bacteria Mini Kit protocol of bacterial cell pellet with enzymatic lysis. Tube A was prepared as described except with the addition of 150 mg/mL lysozyme (Sigma-Aldrich #L6876) and 20 mg/mL proteinase K (Roche #03115879001) all diluted in 1xTE buffer. RNA samples were subsequently quantified using Qubit RNA HS Assay Kit (Thermo Fisher Scientific #Q32852) and analyzed using a RNA 6000 Pico Kit (Agilent 5067-1513) in a 2100 Bioanalyzer (Agilent G2939A). RNA samples were either immediately used for RNA-Seq library preparation or stored long-term at −80° C.
(§4) RNA-Seq libraries were then produced from these samples using a slightly modified ScriptSeq v2 RNA-Seq Library Preparation Kit (Illumina 455A/22124) ensuring use of unique index primers through ScriptSeq Index PCR Primers (Sets 1-4) 48 rxns/set (Illumina #SSIP1234).

The subject of assay [3] is P. simplex bacteria (steroid responsive genome island, SRGI). In words: RNA-Seq screen of steroid treated P. simplex against solvent controls. In kind it is cell-based, Pimelobacter simplex. The conditions noted are these: Log2 fold change vs solvent control.
Text: as §1, §2, §3, §4

PinR, sequence (A0A0A1DUF2 entry or part of it): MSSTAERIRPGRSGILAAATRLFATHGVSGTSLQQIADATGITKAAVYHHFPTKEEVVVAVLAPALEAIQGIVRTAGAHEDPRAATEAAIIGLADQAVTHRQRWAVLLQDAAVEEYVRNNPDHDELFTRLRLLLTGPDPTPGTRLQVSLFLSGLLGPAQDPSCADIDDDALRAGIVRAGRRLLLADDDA

For `CC(=O)[C@H]1CC[C@H]2[C@@H]3CCC4=CC(=O)CC[C@]4(C)[C@H]3CC[C@]12C` [PRG, Progesterone], in assay [1], the IC50 amounted to 59 ± 4 nM. Further, the “P (slope of fit)” value in assay [1] (sensor 3, HEPES 1×) is reported as 1.31 ± 0.10. The “upregulation of genes inside the SRGI” value in assay [2] is recorded as “observed”. In assay [3], the “upregulation of genes inside the SRGI (in words)” value was “upregulation of genes inside the SRGI were observed”.
